Nc1ccnc(=O)[nH]1
solubility (mole fraction)
Details	288.15 K	293.15 K	298.15 K	303.15 K	308.15 K	313.15 K	318.15 K	323.15 K	328.15 K
in DMSO	–	0.00997	0.0105	0.0111	0.012	0.0129	0.0136	0.0145	0.0155
in ethanol	0.000339	0.000348	0.000372	0.000423	0.000451	0.000497	0.000523	0.000609	0.000692
in isobutanol	0.000144	0.000162	0.000175	0.0002	0.000224	0.000268	0.000309	0.00035	0.000394
in isopentanol	0.000201	0.000221	0.000253	0.000278	0.000308	0.000344	0.000374	0.000415	0.000483
in isopropanol	0.000159	0.000175	0.000187	0.000205	0.00024	0.000283	0.000316	0.000358	0.000412
in methanol	0.000721	0.000808	0.000897	0.000999	0.00112	0.00125	0.00143	0.00159	0.00177
in n-butanol	0.000171	0.000193	0.000221	0.000241	0.000274	0.000301	0.000344	0.000389	0.000439
in n-hexanol	0.000139	0.000153	0.000168	0.000187	0.000213	0.000251	0.00029	0.000337	0.000378
in n-octanol	0.000102	0.000108	0.00012	0.000133	0.000153	0.000188	0.00023	0.000266	0.000304
in n-pentanol	0.000165	0.000185	0.000197	0.000228	0.000254	0.000293	0.00033	0.000369	0.000425
in n-propanol	0.000218	0.000235	0.000273	0.000303	0.000329	0.000373	0.000433	0.000526	0.000588
in sec-butanol	0.000128	0.000137	0.000149	0.000165	0.000191	0.000234	0.000279	0.000321	0.000367
in tert-butanol	–	–	–	0.000269	0.00036	0.000461	0.000706	0.000848	0.00118
in water	0.000768	0.000899	0.00112	0.00145	0.00176	0.00215	0.00261	0.00337	0.00397
